CCc1nnc(NC(=O)c2ccc([N+](=O)[O-])cc2)s1
solubility (mole fraction)
Settings	288.15 K	293.15 K	298.15 K	303.15 K	308.15 K	313.15 K	318.15 K
in ethanol	2.81e-05	3.17e-05	3.91e-05	4.87e-05	5.95e-05	7.34e-05	8.87e-05
in n-hexane	6.2e-06	7.4e-06	9.5e-06	1.19e-05	1.44e-05	1.79e-05	2.11e-05
in n-octanol	4.34e-05	5.22e-05	6.52e-05	8.06e-05	9.61e-05	0.000118	0.00014

Source: BigSolDB 2.1
